{"source": "patent US20040091985A1", "about": "“NAD phosphite oxidoreductase, a novel catalyst from bacteria for regeneration of NAD(P)H” (priority 2002, published 2004)", "key": {"PtxD [1]": {"target": "T1, PtxD (Stutzerimonas stutzeri, UniProt O69054)", "T1 sequence (O69054 1-336)": "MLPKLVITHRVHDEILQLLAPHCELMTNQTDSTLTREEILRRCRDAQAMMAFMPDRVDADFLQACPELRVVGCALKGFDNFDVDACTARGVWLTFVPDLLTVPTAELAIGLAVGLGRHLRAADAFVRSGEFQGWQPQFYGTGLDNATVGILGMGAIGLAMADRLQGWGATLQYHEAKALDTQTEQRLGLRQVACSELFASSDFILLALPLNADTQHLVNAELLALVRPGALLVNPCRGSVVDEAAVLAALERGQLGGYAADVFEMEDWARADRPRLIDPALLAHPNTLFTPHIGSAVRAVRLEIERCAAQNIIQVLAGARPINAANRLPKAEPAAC", "assay_type": "biochemical, Pseudomonas stutzeri WM88", "parameters": "made in house"}, "PtxD [2]": {"target": "T1, PtxD", "assay_type": "biochemical, Pseudomonas stutzeri WM88", "parameters": "made in house", "remark": "listed apart in the source"}, "PtxD [3]": {"target": "T1, PtxD", "test": "Initial rate studies of PtxD with NAD and phosphite, kinetic model fitting"}, "PtxD [4]": {"target": "T1, PtxD", "assay_type": "biochemical, Pseudomonas stutzeri WM88", "parameters": "made in house", "remark": "listed apart in the source"}, "PtxD [5]": {"target": "PtxD (Stutzerimonas stutzeri, UniProt O69054)", "assay_type": "biochemical"}, "PtxD [6]": {"target": "T1, PtxD", "test": "Initial rate studies of PtxD in the presence of products (NADH, phosphate) and dead end inhibitor sulfite", "assay_type": "biochemical, Pseudomonas stutzeri WM88", "parameters": "made in house"}, "FDH": {"target": "FDH", "settings": "read-out: Ki, inhibition of FDH; cited from earlier work"}, "PtxD/LLDH": {"target": "PtxD/LLDH (Stutzerimonas stutzeri, UniProt O69054)", "assay_type": "biochemical"}, "PtxD/HLADH": {"test_system": "PtxD/HLADH", "assay_type": "biochemical"}, "PtxD [7]": {"target": "T1, PtxD", "assay_type": "biochemical, Pseudomonas stutzeri WM88", "parameters": "made in house", "remark": "listed apart in the source"}}, "note": "Where “and” joins values, the source holds several entries; their conditions need not be identical. Equal values may be shown once. Entries after “also recorded” stand apart in the source; their conditions may differ.", "data": [{"compound": "Nc1ncnc2c1ncn2[C@@H]1O[C@H](COP(=O)(O)O)[C@@H](O)[C@H]1O", "note": "[AMP]", "values": [{"measurement": "inhibitory activity on PtxD, in words", "setting": "PtxD [1]", "result": "does not inhibit"}]}, {"compound": "Phosphite", "values": [{"measurement": "Activity, substrates", "setting": "PtxD [2]", "result": 100.00, "unit": "%"}, {"measurement": "Km", "setting": "PtxD [3]", "result": "53.1 µM and ~50 µM"}]}, {"compound": "O=C(O)C(O)CO", "note": "(stereo not shown) [glycerate]", "values": [{"measurement": "reduction of potential substrate by PtxD with NADH (reverse direction)", "setting": "PtxD [4]", "result": "unable to catalyze the reduction"}]}, {"compound": "Nc1ncnc2c1ncn2[C@@H]1O[C@H](COP(=O)(O)OP(=O)(O)OC[C@H]2OC(O)[C@H](O)[C@@H]2O)[C@@H](O)[C@H]1O", "note": "(stereo partly shown) [ADPR, ADP-ribose]", "values": [{"measurement": "inhibitory activity on PtxD, in words", "setting": "PtxD [1]", "result": "weak enzyme inhibitors"}]}, {"compound": "NC(=O)c1ccc[n+]([C@@H]2O[C@H](COP(=O)([O-])OP(=O)(O)OC[C@H]3O[C@@H](n4cnc5c(N)ncnc54)[C@H](O)[C@@H]3O)[C@@H](O)[C@H]2O)c1", "note": "[NAD]", "values": [{"measurement": "total turnover numbers of NAD^+", "setting": "PtxD [5]", "result": "up to 2000"}, {"measurement": "Activity, cofactors", "setting": "PtxD [2]", "result": 100.00, "unit": "%"}, {"measurement": "Ki", "setting": "PtxD [6]; Ki, inhibition of PtxD", "result": 223, "unit": "µM"}, {"measurement": "Ki", "setting": "FDH", "result": 150, "unit": "µM"}, {"measurement": "TN (NAD^+)", "setting": "PtxD/LLDH", "result": 12}, {"measurement": "TTN (NAD^+)", "setting": "PtxD/LLDH", "result": 2000}, {"measurement": "TN (NAD^+)", "setting": "PtxD/HLADH", "result": 123}, {"measurement": "TTN (NAD^+)", "setting": "PtxD/HLADH", "result": 2000}]}, {"compound": "O=C(O)[C@H](O)CO", "note": "[D-Glycerate]", "values": [{"measurement": "inhibitory activity on PtxD, in words", "setting": "PtxD [1]", "result": "moderately inhibited"}]}, {"compound": "O=S(O)O", "note": "[Sulfite]", "values": [{"measurement": "Ki", "setting": "PtxD [6]; Kii", "result": "4.97 µM and 1.15 µM"}, {"measurement": "Ki", "setting": "PtxD [6]; Kis with respect to NAD", "result": "10.8 ± 0.1", "unit": "µM"}, {"measurement": "Ki", "setting": "PtxD [6]; Kis with respect to phosphite", "result": "16.1 ± 0.1", "unit": "µM"}, {"measurement": "inhibitory activity on PtxD, in words", "setting": "PtxD [1]", "result": "strong inhibitor"}]}, {"compound": "[Cl-].[Na+]", "note": "[NaCl]", "values": [{"measurement": "activity left", "setting": "PtxD [7]", "result": 37, "unit": "%"}]}, {"compound": "Nc1ncnc2c1ncn2[C@@H]1O[C@H](COP(=O)(O)OP(=O)(O)O)[C@@H](O)[C@H]1O", "note": "[ADP]", "values": [{"measurement": "inhibitory activity on PtxD, in words", "setting": "PtxD [1]", "result": "weak enzyme inhibitors"}]}, {"compound": "Arsenite", "values": [{"measurement": "inhibitory activity on PtxD, in words", "setting": "PtxD [1]", "result": "moderately inhibited"}]}, {"compound": "O=C(O)CN(CCN(CC(=O)O)CC(=O)O)CC(=O)O", "note": "[EDTA]", "values": [{"measurement": "effect on enzyme activity", "setting": "PtxD [7]", "result": "no effect"}]}, {"compound": "O=C(O)O", "note": "[bicarbonate]", "values": [{"measurement": "reduction of potential substrate by PtxD with NADH (reverse direction)", "setting": "PtxD [4]", "result": "unable to catalyze the reduction"}]}, {"compound": "Nc1ncnc2c1ncn2[C@@H]1O[C@H](COP(=O)(O)OP(=O)(O)OP(=O)(O)O)[C@@H](O)[C@H]1O", "note": "[ATP]", "values": [{"measurement": "inhibitory activity on PtxD, in words", "setting": "PtxD [1]", "result": "weak enzyme inhibitors"}]}, {"compound": "arsenate", "values": [{"measurement": "reduction of potential substrate by PtxD with NADH (reverse direction)", "setting": "PtxD [4]", "result": "unable to catalyze the reduction"}]}, {"compound": "O=C(O)CN(CCOCCOCCN(CC(=O)O)CC(=O)O)CC(=O)O", "note": "[EGTA]", "values": [{"measurement": "effect on enzyme activity", "setting": "PtxD [7]", "result": "no effect"}]}, {"compound": "NCCP(=O)(O)O", "note": "[Aminoethylphosphonate]", "values": [{"measurement": "reduction of potential substrate by PtxD with NADH (reverse direction)", "setting": "PtxD [4]", "result": "unable to catalyze the reduction"}]}, {"compound": "O=C(O)C(=O)CO", "note": "[hydroxypyruvate]", "values": [{"measurement": "reduction of substrate by PtxD with NADH", "setting": "PtxD [4]", "result": 0.14, "unit": "units/mg"}]}, {"compound": "O=NO", "note": "[Nitrite]", "values": [{"measurement": "inhibitory activity on PtxD, in words", "setting": "PtxD [1]", "result": "moderately inhibited"}]}, {"compound": "NC(=O)c1ccc[n+]([C@@H]2O[C@H](COP(=O)([O-])OP(=O)(O)OC[C@H]3O[C@@H](n4cnc5c(N)ncnc54)[C@H](OP(=O)(O)O)[C@@H]3O)[C@@H](O)[C@H]2O)c1", "note": "[NADP]", "values": [{"measurement": "Activity, cofactors", "setting": "PtxD [2]", "result": "3.4% and 7.1% and 0.4% and 1.1%"}, {"measurement": "ability to substitute for NAD", "setting": "PtxD [2]", "result": "able to substitute for NAD; also recorded: can substitute for NAD"}, {"measurement": "inhibitory activity on PtxD, in words", "setting": "PtxD [1]", "result": "weak enzyme inhibitors"}]}, {"compound": "NADH", "values": [{"measurement": "type of inhibition of PtxD", "setting": "PtxD [6]", "result": "competitive inhibitor"}]}, {"compound": "CC(C)CC(O)C(=O)O", "note": "(racemic) [DL-Hydroxyisocaproate]", "values": [{"measurement": "inhibitory activity on PtxD, in words", "setting": "PtxD [1]", "result": "moderately inhibited"}]}]}
